Measurements taken from US6413974B1, “6,9,-disubstituted 2-[trans-(4-aminocyclohexyl) amino] purines” (Aventis Pharmaceuticals Inc., priority 1998, dated 2002).
“And” between values parts separate entries of the source, which are not always exact repeats. Identical values can stand only once. Counter-ions that a name gives are not always drawn. Like-named read-outs stand apart in the source and are kept apart here.

Legend:
[1] = test system: p34^cdc2-cyclin B kinases; details: Havlicek et al. 1997; cited from earlier work
[2] = test system: PC-3; assay: In vitro tumor cell proliferation, PC-3; assay type: cell-based, human; details: read-out: In vitro Tumor Cell Proliferation (IC50, μM) Prostate PC-3
In short: (§1)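 Viable (trypan blue-excluding) cells plated and left overnight at 37° C, then exposed to drug for 3 days, refed with fresh drug-containing medium for 4 more days. TCA-fixed cells stained with 0.4% sulforhodamine B; alternatively, CyQUANT read after 3 days of drug and freezing at −80° C.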

[3] = test system: HT-29; assay: In vitro tumor cell proliferation, HT-29; assay type: cell-based, human; details: read-out: In vitro Tumor Cell Proliferation (IC50, μM) Colon HT-29 (converted)
In short: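 HT-29 human colon adenocarcinoma cells plated overnight at 37° C., then exposed to drug for 3 days, medium with fresh drug replaced for a further 4 days. Cells fixed with 10% TCA and stained with 0.4% sulforhodamine B; alternatively, CyQUANT read after 3 days of drug exposure.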

[4] = test system: DMS-114; assay: In vitro tumor cell proliferation, DMS-114; assay type: cell-based, human; details: read-out: In vitro Tumor Cell Proliferation (IC50, μM) Lung DMS-114
In short: as §1

[5] = test system: MCF-7; assay: In vitro tumor cell proliferation, MCF-7; assay type: cell-based, human; details: read-out: In vitro Tumor Cell Proliferation (IC50, μM) Breast MCF-7
Experimental: (§2) The proliferation of tumor cells was measured using a sulforhodamine B assay as described in Skehan, P., et al., J. Natl. Cancer Inst. […] Tumor cells were harvested with trypsin-EDTA, cells that excluded trypan blue were counted, added to 96-well plates and incubated overnight at 37° C. Drug was added to the wells following dilution in culture medium. Three days later, the medium was removed and replenished with medium containing fresh drug and incubated an additional 4 days. The cells were then fixed with 0.1 ml 10% trichloroacetic acid for 60 min at 4° C. The plates were rinsed five times with tap water, air-dried and stained for 30 min with 0.4% sulforhodamine B in 1% acetic acid and air-dried.
(§3) Alternatively, the CyQUANT cell proliferation assay was used to quantify tumor cell proliferation. Tumor cells were harvested with trypsin-EDTA, cells that excluded trypan blue were counted, added to 96-well plates and incubated overnight at 37° C. Drug was added to the wells following dilution in culture medium. Three days later the medium was removed and the plates frozen at −80° C. for at least 30 minutes.
MCF7 is a human breast adenocarcinoma, hormone-dependent (HTB 22);

[6] = target: T1, cdk2/cyclin E (Homo sapiens, UniProt P24941); assay: Cyclin-Dependent Kinase 2 Assay (cdk-2 inhibition); assay type: biochemical; details: GST-Rb substrate, 30 min at 30° C.
T1 construct: made in house; host or cells: insect cells (baculovirus co-infection)
In short: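 GST-Rb bound to glutathione-Sepharose beads (0.5 μg/well) as substrate in 50 mM HEPES pH 7.5, 10 mM MgCl2, 1 mM EGTA. Recombinant cdk2/cyclin E at 0.1 μg per 100 μl, 30 min at 30 °C. Reaction stopped by filtration, TNEN washes, scintillation counting.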

[7] = test system: A549; assay: In vitro tumor cell proliferation, A549; assay type: cell-based, human; details: read-out: In vitro Tumor Cell Proliferation (IC50, μM) Lung A549
In short: as §1

[8] = test system: DU 145; assay: In vitro tumor cell proliferation, DU 145; assay type: cell-based, human; details: read-out: In vitro Tumor Cell Proliferation (IC50, μM) Prostate DUI45
In short: as §1

[9] = test system: MDA-MB-231; assay: In vitro tumor cell proliferation, MDA-MB-231; assay type: cell-based, human; details: read-out: In vitro Tumor Cell Proliferation (IC50, μM) Breast MDA-MB-231
In short: as §1

[10] = target: T2, cdk4/cyclin D1 (Homo sapiens, UniProt P11802); assay: Cyclin-dependent kinase 4 Assay; assay type: biochemical; details: cdk4/cyclin D1, GST-Rb substrate, 10 μM ATP, 30 min at 37° C.; read-out: CDK4 Inhibition IC50
T2 construct: made in house; host or cells: Sf9 insect cells (Bac-to-Bac baculovirus, pFastBac)
In short: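 Insect-cell lysate of coexpressed human cdk4/cyclin D1 (0.1 μg) phosphorylated bead-bound GST-Rb (0.5 μg) in 50 mM HEPES pH 7.5, 10 mM MgCl2, 1 mM EGTA for 30 min at 37 °C. Filters were washed with TNEN and scintillation-counted; IC50 values derived.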

[11] = test system: HCT-15; assay: In vitro tumor cell proliferation, HCT-15; assay type: cell-based, human; details: read-out: In vitro Tumor Cell Proliferation (IC50, μM) Colon HCT-15
Experimental: as §2, §3

[12] = test system: neuronal PC12 cells and sympathetic neurons; details: cited from earlier work
[13] = test system: proliferating PC12 cells; details: cited from earlier work
[14] = test system: PC12 cells, or rat sympathetic neurons; details: cited from earlier work
[15] = test system: cortical neurons; details: cited from earlier work
[16] = Homo sapiens, PC-3, values without *
[17] = values without *, dihydrochloride
[18] = Homo sapiens, HT-29, values without *
[19] = Homo sapiens, DMS-114, values without *
[20] = Homo sapiens, MCF7, values without *
[21] = Homo sapiens, A549, values without *
[22] = Homo sapiens, DU-145, values without *
[23] = Homo sapiens, HCT-15, values without *
[24] = Homo sapiens, MDA-MB-231, values without *
[25] = values without *, trihydrochloride

T2 sequence (P11802 whole entry): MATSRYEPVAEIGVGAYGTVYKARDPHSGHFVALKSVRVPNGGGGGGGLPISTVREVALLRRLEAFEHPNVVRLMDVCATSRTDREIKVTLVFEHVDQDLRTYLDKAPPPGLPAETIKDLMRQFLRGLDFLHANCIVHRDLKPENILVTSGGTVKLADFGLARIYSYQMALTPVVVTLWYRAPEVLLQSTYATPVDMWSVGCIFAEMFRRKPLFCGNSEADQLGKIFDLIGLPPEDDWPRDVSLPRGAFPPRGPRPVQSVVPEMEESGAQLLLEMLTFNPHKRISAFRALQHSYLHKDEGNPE
T2 sequence (P24385 whole entry partner): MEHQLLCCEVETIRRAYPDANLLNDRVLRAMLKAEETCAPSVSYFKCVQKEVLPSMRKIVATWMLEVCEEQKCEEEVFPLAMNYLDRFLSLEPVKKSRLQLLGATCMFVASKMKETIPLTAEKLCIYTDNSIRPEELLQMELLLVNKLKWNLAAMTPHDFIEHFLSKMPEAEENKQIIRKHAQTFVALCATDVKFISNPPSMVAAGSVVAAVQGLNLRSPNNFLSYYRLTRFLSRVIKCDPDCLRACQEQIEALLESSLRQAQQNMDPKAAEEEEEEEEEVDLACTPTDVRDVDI

Row | Compound | IC50 [2, 16] | IC50 [2, 17] | IC50 [3, 18] | IC50 [3, 17] | IC50 [4, 19] | IC50 [4, 17] | IC50 [5, 20] | IC50 [5, 17] | IC50 [6] | IC50 [7, 21] | IC50 [8, 22] | IC50 [8, 17] | IC50 [10] | IC50 [11, 23] | IC50 [11, 17] | IC50 [7, 17] | IC50 [9, 24] | IC50 [9, 17] | other results
1 | CC[C@@H](CO)Nc1nc(NCc2ccccc2)c2ncn(C(C)C)c2n1 (single isomer, unassigned) [(S) enantiomer] | – | – | – | – | – | – | – | – | – | – | – | – | – | – | – | – | – | – | IC50 [1]: 800 nM
2 | N[C@H]1CC[C@H](Nc2nc(NCCCc3ccccc3)c3ncn(C4CCCC4)c3n2)CC1 [Example 24, 2-[Trans-(4-aminocyclohexyl)amino]-6-[3-(phenyl)propylamino]-9-cyclopentylpurine dihydrochloride] | 0.13 µM | 0.23 µM | 0.16 µM | 0.17 µM and 0.28 µM | 0.14 µM | 0.13 µM | 0.34 µM | 0.47 µM | 130 nM | 0.15 µM | 0.39 µM | 0.38 µM and 0.51 µM | 570 nM and 900 nM | 1.4 µM | 1 µM | – | – | – | IC50 ([2]; Homo sapiens, PC-3, values marked * (mark not explained)): 0.2 µM; IC50 ([3]; Homo sapiens, HT-29, values marked * (mark not explained)): 0.19 µM; IC50 ([4]; Homo sapiens, DMS-114, values marked * (mark not explained)): 0.07 µM; IC50 ([5]; Homo sapiens, MCF7, values marked * (mark not explained)): 0.42 µM; IC50 ([7]; Homo sapiens, A549, values marked * (mark not explained)): 0.11 µM; IC50 ([8]; Homo sapiens, DU-145, values marked * (mark not explained)): 0.54 µM; IC50 ([9]; Homo sapiens, MDA-MB-231, values marked * (mark not explained)): 0.24 µM; IC50 ([11]; Homo sapiens, HCT-15, values marked * (mark not explained)): 0.99 µM
3 | CC(C)CCNc1nc(N[C@H]2CC[C@H](N)CC2)nc2c1ncn2C1CCCC1 [Example 36, 2-[Trans-(4-aminocyclohexyl)amino]-6-[(3-methylbutyl)amino]-9-cyclopentylpurine dihydrochloride] | 0.68 µM | – | 1.5 µM | 1.9 µM | 0.88 µM | 0.91 µM | 1.1 µM | 1.3 µM | 120 nM | 0.8 µM | 0.89 µM | 1.1 µM | 1100 nM and 600 nM | 3.1 µM | 3.3 µM | 0.94 µM | 1.4 µM | 2 µM | –
4 | N[C@H]1CC[C@H](Nc2nc(NCCc3ccccc3)c3ncn(C4CCCC4)c3n2)CC1 [Example 43, 2-[Trans-(4-aminocyclohexyl)amino-6-[2-(phenyl)ethylamino]-9-cyclopentylpurinedihydrochloride] | 0.89 µM | 0.92 µM | 2.2 µM | 2.8 µM | 0.92 µM | 1.2 µM | 1.2 µM | 1.6 µM | 160 nM | 1.1 µM | 1.2 µM | 1.4 µM | 250 nM | 3.4 µM | 3.2 µM | 1 µM | 2.1 µM | 2.5 µM | –
5 | CC(C)n1cnc2c(NCc3ccccc3)nc(N[C@H]3CC[C@H](N)CC3)nc21 [Example 45, 2-[Trans-(4-aminocyclohexyl)amino]-6-(benzylamino)-9-(2-propyl)purine trihydrochloride] | 2.4 µM | – | 4.8 µM | – | 2.1 µM | – | 1.6 µM | – | 180 nM | 2 µM | 2.5 µM | – | 12000 nM | 16 µM | – | – | 4 µM | – | IC50 [2, 25]: 1.4 µM; IC50 [3, 25]: 3.5 µM; IC50 [4, 25]: 1.6 µM; IC50 [5, 25]: 1.7 µM; IC50 [7, 25]: 1.8 µM; IC50 [8, 25]: 1.9 µM; IC50 [9, 25]: 3 µM; IC50 [11, 25]: 17 µM
6 | N[C@H]1CC[C@H](Nc2nc(NCCCn3ccnc3)c3ncn(C4CCCC4)c3n2)CC1 [Example 46, 2-[Trans-(4-aminocyclohexyl)amino]-6-[3-(1-imidazolyl)propylamino]-9-cyclopentylpurine dihydrochloride] | 2 µM | 3 µM | 6.2 µM | 9.7 µM | 5.4 µM | 7.4 µM | 3.5 µM | 4.9 µM | 20 nM and 17 nM and 21 nM | 6 µM | 5.1 µM | 6 µM | 450 nM | – | 16 µM | 6.7 µM | 5.2 µM | 7 µM | –
7 | CN1CC[C@H](c2c(O)cc(O)c3c(=O)cc(-c4ccccc4Cl)oc23)[C@H](O)C1 [Flavoipiridol, reference compound] | 0.07 µM | – | – | – | 0.08 µM | – | 0.06 µM | – | – | 0.08 µM | 0.08 µM | – | – | 0.1 µM | – | – | 0.095 µM | – | apoptosis of post-mitotic differentiated or sympathetic neurons ([12]; following withdrawal of NGF): prevented apoptosis; death of neuronal PC12 cells and sympathetic neurons ([12]; two model systems of neuronal survival, Park et al. 1996): suppress the death; minimum concentration that fully inhibits DNA synthesis [13]: 1 µM; cell death at day 6 ([14]; both or individual olomoucine or flavopiridol, in the presence or absence of camptothecin): approximately 30%; concentration giving maximal protection from death ([14]; camptothecin-treated PC12 cells or rat sympathetic neurons): 1 µM; IC50 ([15]; Park et al. 1997, read-out: IC50, protection against camptothecin-induced cortical neuronal death): 100 nM
8 | Cn1cnc2nc(NCCO)nc(NCc3ccccc3)c21 [iso-olomoucine] | – | – | – | – | – | – | – | – | – | – | – | – | – | – | – | – | – | – | prevention of cell death of camptothecin-treated neuronal cells ([14]; PC12 cells / sympathetic neurons): failed to prevent the cell death; prevention of cell death of camptothecin-treated neuronal cells ([15]; cortical neurons): failed to prevent the cell death
